{"source": "paper PMC8954944", "about": "(Molecules, 2022)", "key": {"[1]": {"system": "c-myc G-quadruplex DNA FRET probe (FAM/TAMRA) (DNA, G4) TGGGGAGGGTGGGGAGGGTGGGGAAGG", "experiment": "FRET melting", "settings": "100 mM KCl, 10 mM Na3AsO4; 10 mM Tris-HCl pH 7.4; 0.2 μM DNA; complex 0.15 or 0.30 μM, not given"}, "[2]": {"system": "c-myc G-quadruplex DNA (DNA, G4) TGGGGAGGGTGGGGAGGGTGGGGAAGG", "experiment": "UV-vis titration", "settings": "100 mM KCl"}, "[3]": {"system": "c-myc G-quadruplex DNA (DNA, G4) TGGGGAGGGTGGGGAGGGTGGGGAAGG", "experiment": "fluorescent intercalator displacement", "settings": "100 mM KCl, thiazole orange 1 μM displaced, DNA 0.5 μM"}, "[4]": {"system": "human breast cancer MCF-7 cells", "experiment": "MTT assay, MCF-7", "format": "cell-based", "settings": "72 h, 570 nm"}, "[5]": {"system": "human lung cancer A549 cells", "experiment": "MTT assay, A549", "format": "cell-based", "settings": "72 h, 570 nm"}, "[6]": {"system": "human liver carcinoma HepG2 cells", "experiment": "MTT assay, HepG2", "format": "cell-based", "settings": "72 h, 570 nm"}, "[7]": {"system": "human glioblastoma U87 cells", "experiment": "MTT assay, U87", "format": "cell-based", "settings": "72 h, 570 nm"}, "[8]": {"system": "human keratinocyte Hacat cells", "experiment": "Cytotoxic activity against Hacat cells", "format": "cell-based", "settings": "72 h incubation", "experimental": "The cytotoxic activity of the ligands and arene Ru(II)-modified compounds […] 1 . The cytotoxic activities of complexes against human keratinocyte […] 72 h incubation. Comp. L1 L2 3 6 […] 7. Multiple gene expression in glioblastoma multiforme Figure S20. Multiple gene expression in glioblastoma multiforme(Copyright © 2017 […], Boxi Kang. Zhang's Lab.). The darker the color, the higher the gene expression in glioblastoma multiforme. As shown in the heat map, c-myc gene is highly expressed in glioblastoma multiforme (GBM) compared with other G-quadruplex DNA (Tel, Bcl-2, c-kit, k-ras). 8. […]"}, "human normal liver cells": {"system": "human normal liver cells", "experiment": "Toxicity to human normal liver cells", "settings": "read-out: IC50 human normal liver cells"}, "c-myc G-quadruplex DNA": {"system": "c-myc G-quadruplex DNA", "experiment": "UV–vis absorption titration with c-myc G-quadruplex DNA", "format": "binding", "settings": "10 mM Tris-HCl buffer (pH 7.4), 100 mM KCl, [DNA]=100 μM", "experimental": "Electron spectroscopy is one of the most widely used techniques to evaluate the binding ability between metal complexes and DNA. UV–vis spectra titration experiments were conducted to further clarify the binding behavior of these complexes with c-myc G-quadruplex DNA.\nThe intramolecular c-myc G-quadruplex DNA structure was prepared by incubating Pu22 in a 10 mM Tris-HCl buffer (pH 7.4) containing 100 mM KCl, which was heated to 95 °C for 5 min, cooled to room temperature overnight, and stored at 4 °C for 24 h. The binding parameters of the arene Ru(II) complexes and c-myc G-quadruplex DNA were measured at room temperature using the UV–vis absorption spectra (Shimadzu UV-2550 spectrophotometer). […] The intrinsic binding constant (Kb) was calculated using the following:[DNA]/(εa − εf) = [DNA]/(εb − εf) + 1/[Kb(εb − εf)](2)\nIn the formula, εa, εf, and εb are the apparent coefficients, and the free and fully bound forms of the metal complex extinction coefficients, respectively. […] Kb is the ratio of the slope to the intercept."}, "[9]": {"settings": "10 mM Tris-HCl pH 7.4, room temperature, 20 μM complex"}, "[10]": {"settings": "10 mM Tris-HCl pH 7.4, room temperature"}}}
{"compound": "Cc1ccc(C(C)C)cc1.Fc1ccc(-c2nc3c4cccnc4c4ncccc4c3[nH]2)c(F)c1.[Cl-].[Ru+2]", "values": [{"measurement": "ΔTm", "setting": "[1]", "result": 0.4, "unit": "°C"}, {"measurement": "Kb", "setting": "[2]; [9]", "result": "~ 14.6 × 10^6 M^-1"}, {"measurement": "DC50", "setting": "[3]; [10]", "result": 15.6, "unit": "µM"}]}
{"compound": "Cc1ccc(C(C)C)cc1.Fc1cccc(-c2nc3c4cccnc4c4ncccc4c3[nH]2)c1F.[Cl-].[Ru+2]", "values": [{"measurement": "ΔTm", "setting": "[1]", "result": 5.07, "unit": "°C"}, {"measurement": "Kb", "setting": "[2]; [9]", "result": "~ 134 × 10^6 M^-1"}, {"measurement": "DC50", "setting": "[3]; [10]", "result": 10.26, "unit": "µM"}]}
{"compound": "N.N.[Cl][Pt][Cl]", "note": "[Cisplatin, reference compound]", "values": [{"measurement": "IC50", "setting": "[4]", "result": "15.3 ± 0.18", "unit": "µM"}, {"measurement": "IC50", "setting": "[5]", "result": "17.3 ± 0.26", "unit": "µM"}, {"measurement": "IC50", "setting": "[6]", "result": "9.9 ± 0.06", "unit": "µM"}, {"measurement": "IC50", "setting": "[7]", "result": "32.6 ± 0.85", "unit": "µM"}]}
{"compound": "Fc1cccc(-c2nc3c4cccnc4c4ncccc4c3[nH]2)c1F.[Cl-].[Ru+2].c1ccccc1", "values": [{"measurement": "ΔTm", "setting": "[1]", "result": 13.09, "unit": "°C"}, {"measurement": "Kb", "setting": "[2]; [9]", "result": "~ 67.5 × 10^6 M^-1"}, {"measurement": "DC50", "setting": "[3]; [10]", "result": 6.6, "unit": "µM"}]}
{"compound": "Cc1ccccc1.Fc1cccc(-c2nc3c4cccnc4c4ncccc4c3[nH]2)c1F.[Cl-].[Ru+2]", "values": [{"measurement": "ΔTm", "setting": "[1]", "result": 15.05, "unit": "°C"}, {"measurement": "Kb", "setting": "[2]", "result": "~ 110 × 10^6 M^-1"}, {"measurement": "DC50", "setting": "[3]; [10]", "result": 9.93, "unit": "µM"}]}
{"compound": "Fc1ccc(-c2nc3c4cccnc4c4ncccc4c3[nH]2)c(F)c1", "values": [{"measurement": "binding", "setting": "[2]; 10 mM Tris-HCl pH 7.4, DNA 100 μM, no significant absorption change", "result": "weak"}]}
{"compound": "Fc1ccc(-c2nc3c4cccnc4c4ncccc4c3[nH]2)c(F)c1.[Cl-].[Ru+2].c1ccccc1", "values": [{"measurement": "ΔTm", "setting": "[1]", "result": 7.23, "unit": "°C"}, {"measurement": "Kb", "setting": "[2]; [9]", "result": "~ 48.3 × 10^6 M^-1"}, {"measurement": "DC50", "setting": "[3]; 10 mM Tris-HCl pH 7.4, text b19 prints 7.8", "result": 7.6, "unit": "µM"}]}
{"compound": "Cc1ccccc1.Fc1ccc(-c2nc3c4cccnc4c4ncccc4c3[nH]2)c(F)c1.[Cl-].[Ru+2]", "values": [{"measurement": "ΔTm", "setting": "[1]", "result": 6.03, "unit": "°C"}, {"measurement": "Kb", "setting": "[2]", "result": "~ 41.1 × 10^6 M^-1"}, {"measurement": "DC50", "setting": "[3]; [10]", "result": 10.8, "unit": "µM"}]}
{"compound": "Fc1cccc(-c2nc3c4cccnc4c4ncccc4c3[nH]2)c1F", "note": "[L1, 2-(2,3-Di-fluorophenyl) Imidazole [4,5f][1,10]-Phenanthroline]", "values": [{"measurement": "IC50", "setting": "[4]", "result": "4.25 ± 0.18", "unit": "µM"}, {"measurement": "IC50", "setting": "[5]", "result": "7.99 ± 0.05", "unit": "µM"}, {"measurement": "IC50", "setting": "[6]", "result": "0.29 ± 0.01", "unit": "µM"}, {"measurement": "IC50", "setting": "[7]", "result": "14.3 ± 0.47", "unit": "µM"}, {"measurement": "IC50", "setting": "[8]", "result": "1.85 ± 0.03", "unit": "µM"}, {"measurement": "IC50", "setting": "human normal liver cells", "result": 0.34, "unit": "µM"}]}
{"compound": "Fc1ccc(-c2nc3c4cccnc4c4ncccc4c3[nH]2)c(F)c1", "note": "[L2, 2-(2,4-Di-fluorophenyl) Imidazole[4,5f][1,10]-Phenanthroline]", "values": [{"measurement": "UV absorption peak of the ligand after the addition of DNA", "setting": "c-myc G-quadruplex DNA", "result": "did not change significantly"}, {"measurement": "IC50", "setting": "[4]", "result": "1.48 ± 0.09", "unit": "µM"}, {"measurement": "IC50", "setting": "[5]", "result": "3.42 ± 0.13", "unit": "µM"}, {"measurement": "IC50", "setting": "[6]", "result": "0.12 ± 0.01", "unit": "µM"}, {"measurement": "IC50", "setting": "[7]", "result": "5.87 ± 0.27", "unit": "µM"}, {"measurement": "IC50", "setting": "[8]", "result": "2.72 ± 0.06", "unit": "µM"}, {"measurement": "IC50", "setting": "human normal liver cells", "result": 0.18, "unit": "µM"}]}
